The values below come from patent US20250188075A1, “SUBSTITUTED HETEROCYCLIC CSNK1 INHIBITORS” (The Broad Institute, Inc., priority 2022, published 2025).

Series [1] in a line: Solubility assay (thermodynamic solubility). It is filed as physicochemical. Conditions: aqueous buffer, 24 h. As for the experimental part:
Solubility of solid compound in aqueous buffer was determined by an equilibrium shake flask method. A saturated solution of drug in solvent (˜2 mg/ml solvent) was prepared and the solution was mixed for 24 h to ensure that equilibrium has been reached. The solution was centrifuged to remove the insoluble fraction and the concentration of the compound in solution was determined by HPLC-UV using a standard calibration curve (Kerns, E. H. et al., Solubility Methods in: Drug-like Properties: Concepts, Structure Design and Methods, p 276-286. Burlington, MA: Academic Press 2008).

For series [2], the target named is human Ether-a-go-go-Related Gene (hERG) potassium channel (Homo sapiens (Human), UniProt Q12809). In words: hERG inhibition assay, automated voltage clamp. The series is classed as cell-based. Conditions: HEK293 cells stably expressing hERG alpha subunit. As for the experimental part:
Following harvest, cells were transferred to the cell reservoir of a 384 channel automated patch clamp device and stored there at 20° C. until usage.
Upon start of the automated voltage clamp procedure, hERG cells were transferred to a 384 well patch clamp chip (pipette resistance of ˜[…] (2) prefilled with external solution (containing in mM: 143 NaCl, 4 KCl, 2 CaCl2), 1 MgCl2, 5 glucose, 10 HEPES; pH 7.4 (NaOH)). Underpressure was applied underneath the glass bottom of the patch clamp chip to position the hERG cells on the recording sites in the glass bottom of the chip. Following successful cell catch, underpressure was stopped and a seal enhancing solution (containing in mM: 78 NaCl, 60 NMDG, 4 KCl, 10 CaCl2), 1 MgCl2, 5 glucose, 10 HEPES; pH 7.4 (HCl)) was added to the hERG cells to facilitate the formation of stable seals between the membranes of the hERG cells and the glass next to the recording sites. Then, hERG cells were washed several times with wash solution (containing in mM: 87 NaCl, 60 NMDG, 4 KCl, 2 CaCl2), 1 MgCl2, 5 glucose, 10 HEPES; pH 7.4 (HCl)) to remove excess seal enhancing solution. In the meantime, the membrane parts of the hERG cells covering the recording sites were exposed to internal solution (containing in mM: 10 NaCl, 123 KF, 10 EGTA, 10 HEPES; pH 7.2 (KOH)) supplemented with 5-20 μM Escin, and the perforated patch configuration was established. Next, the holding potential was stepwise adjusted to −80 mV, capacitance was compensated, and a series of defined voltage commands was initiated to trigger the hERG current response from the hERG cells (−80 mV for 200 ms, +20 mV for 1000 ms, −40 mV for 500 ms; repeated at a frequency of 0.1 Hz). To determine whether the test item inhibits hERG, different solutions were sequentially applied to the hERG cells: First, a negative control (i.e. wash solution supplemented with 0.3% DMSO and 0.01% HSA) was applied for at least 3 min to investigate the basic electrophysiological properties of the hERG cells as well as define their standard current response. Next, a solution containing the test item at a final concentration of (0.1, 1, or 10) μM was applied for 10 min to measure eventual inhibitory effects of the test item on the hERG current (—the test item solution was produced from a 10 mM DMSO stock by using an automated pipetting device and sequential dilution). Finally, a positive control (i.e. wash solution supplemented with 0.3% DMSO, 0.01% HSA, and 10 μM quinidine) was added to the cells for ˜3 min to block the hERG current and, thereby, define the maximum inhibition. For data analysis, experimental results were processed using the automated patch clamp device-specific software as well as a custom-made software, and TIBCO Spotfire. For each successful recording, hERG tail current amplitudes were averaged from three consecutive current responses at the end of the negative control phase, test item phase, and positive control phase, respectively. Resulting mean hERG tail current amplitudes were normalized to the mean hERG tail current amplitude at the end of the negative control phase with nominal 0% inhibition as well as the hERG tail current amplitude at the end of the positive control phase with nominal 100% inhibition. Then, the effect of the test item was calculated as a percentage inhibition value at the test item concentration applied. Finally, percentage inhibition values from all successful recordings at a particular test item concentration were averaged and combined to construct a standard sigmoidal dose response curve, determine the half maximal inhibitory concentration (IC50) of the test item as well as extrapolate its IC20.
On the technique in general: The hERG channel carries a current that helps repolarise heart muscle cells.

human Ether-a-go-go-Related Gene (hERG) potassium channel, sequence (Q12809 whole entry): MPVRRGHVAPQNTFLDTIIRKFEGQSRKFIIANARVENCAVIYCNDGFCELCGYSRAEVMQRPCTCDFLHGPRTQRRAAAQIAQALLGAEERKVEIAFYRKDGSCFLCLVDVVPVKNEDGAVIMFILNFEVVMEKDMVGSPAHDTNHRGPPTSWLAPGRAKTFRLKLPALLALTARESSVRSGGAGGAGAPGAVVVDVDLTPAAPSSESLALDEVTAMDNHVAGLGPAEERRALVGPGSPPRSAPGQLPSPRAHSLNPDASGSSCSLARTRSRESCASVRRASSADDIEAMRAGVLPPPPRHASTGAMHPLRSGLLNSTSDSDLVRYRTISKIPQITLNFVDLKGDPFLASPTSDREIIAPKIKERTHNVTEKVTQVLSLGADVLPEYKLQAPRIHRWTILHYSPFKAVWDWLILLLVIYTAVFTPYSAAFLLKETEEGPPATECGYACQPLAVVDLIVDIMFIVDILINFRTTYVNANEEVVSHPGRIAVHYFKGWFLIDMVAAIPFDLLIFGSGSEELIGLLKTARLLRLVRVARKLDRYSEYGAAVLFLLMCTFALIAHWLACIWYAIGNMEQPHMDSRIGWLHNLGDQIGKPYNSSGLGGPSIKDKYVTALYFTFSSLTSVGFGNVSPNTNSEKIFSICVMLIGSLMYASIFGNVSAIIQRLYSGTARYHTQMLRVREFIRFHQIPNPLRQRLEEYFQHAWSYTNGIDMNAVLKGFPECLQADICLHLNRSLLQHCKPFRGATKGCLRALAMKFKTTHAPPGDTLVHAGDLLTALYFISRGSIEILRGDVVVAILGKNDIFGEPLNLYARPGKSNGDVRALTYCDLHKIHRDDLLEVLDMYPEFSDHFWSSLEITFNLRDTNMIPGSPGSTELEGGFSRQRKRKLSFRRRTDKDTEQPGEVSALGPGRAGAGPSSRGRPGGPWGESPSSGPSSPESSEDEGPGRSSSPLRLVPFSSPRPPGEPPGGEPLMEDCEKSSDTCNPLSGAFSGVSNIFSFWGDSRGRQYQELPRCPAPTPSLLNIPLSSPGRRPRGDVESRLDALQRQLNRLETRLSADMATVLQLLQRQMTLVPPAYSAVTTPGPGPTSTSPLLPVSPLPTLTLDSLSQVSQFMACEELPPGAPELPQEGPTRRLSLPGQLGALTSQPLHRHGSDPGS

`O=C(Cc1ccc(F)cc1)Nc1cc(-c2[nH]c3ccc(F)nc3c2-c2ccccn2)ccn1` [Example C4, reference compound]: the “Thermodynamic Solubility [mg/l] (mean)” value in series [1] was determined as 2.35 mg/L. In series [2], the IC50 is 1.16 µM.

In general, IC50 refers to the midpoint of a concentration-inhibition curve. Lower therefore signals inhibition by little substance.
